Test results as given in ChEMBL document CHEMBL1201862, “PubChem BioAssay data set” (2004).
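Cells were grown in 96-well plates and exposed to each compound for 48 hours at five concentrations; endpoints were interpolated linearly between bracketing concentrations, or set to the highest concentration if not reached. The concentration for 50% growth inhibition is given as GI50.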 The source made the active and inactive calls. Cut-off read from the data, not from the text of the source: active = GI50 up to about 1.1 µM and inactive = higher.

What was measured:
Test in all cases: NCI anticancer screen, dose series, 48 h
[1] = tested on: HT-29
[2] = tested on: MDA-MB-231
[3] = tested on: SN12C
[4] = tested on: SF-295
[5] = tested on: EKVX
[6] = tested on: Malme-3M
[7] = tested on: HL-60
[8] = tested on: NCI-H23
[9] = tested on: MDA-N
[10] = tested on: SNB-75
[11] = tested on: M14
[12] = tested on: LOX IMVI
[13] = tested on: MDA-MB-435
[14] = tested on: SF-539
[15] = tested on: SF-268
[16] = tested on: UACC-257
[17] = tested on: BT-549
[18] = tested on: SNB-19
[19] = tested on: HOP-92

Compound	GI50 [1]	GI50 [2]	GI50 [3]	GI50 [4]	GI50 [5]	GI50 [6]	GI50 [7]	GI50 [8]	GI50 [9]	GI50 [10]	GI50 [11]	GI50 [12]	GI50 [13]	GI50 [14]	GI50 [15]	GI50 [16]	GI50 [17]	GI50 [18]	GI50 [19]
CC1(C)SC2C(NC(=O)Cc3ccccc3)C(=O)N2C1C(=O)O (centres undefined)	> 100 µM (inactive)	> 100 µM (inactive)	> 100 µM (inactive)	> 100 µM (inactive)	> 100 µM (inactive)	> 100 µM (inactive)	> 100 µM (inactive)	> 100 µM (inactive)	> 100 µM (inactive)	> 100 µM (inactive)	> 100 µM (inactive)	> 100 µM (inactive)	> 100 µM (inactive)	> 100 µM (inactive)	> 100 µM (inactive)	> 100 µM (inactive)	> 100 µM (inactive)	> 100 µM (inactive)	> 100 µM (inactive)
N=C(N)NS(=O)(=O)c1ccc(NC(=O)c2cccc3c(NNc4ccc(S(=O)(=O)N=C(N)N)cc4)c4ccccc4nc23)cc1	31.1 µM (inactive)	46.6 µM (inactive)	> 100 µM (inactive)	> 100 µM (inactive)	30.8 µM (inactive)	38.2 µM (inactive)	35.5 µM (inactive)	52.4 µM (inactive)	91.4 µM (inactive)	> 100 µM (inactive)	> 100 µM (inactive)	34.8 µM (inactive)	42.3 µM (inactive)	> 100 µM (inactive)	61.9 µM (inactive)	> 100 µM (inactive)	33.3 µM (inactive)	76.7 µM (inactive)	47.4 µM (inactive)
NC(=S)N/N=C1\CCCCC1C(O)(C(F)(F)Cl)C(F)(F)Cl (centres undefined)	> 10 µM (inactive)	> 10 µM (inactive)	> 10 µM (inactive)	> 10 µM (inactive)	> 10 µM (inactive)	> 10 µM (inactive)	> 10 µM (inactive)	> 10 µM (inactive)	> 10 µM (inactive)	> 10 µM (inactive)	> 10 µM (inactive)	> 10 µM (inactive)	> 10 µM (inactive)	> 10 µM (inactive)	> 10 µM (inactive)	> 10 µM (inactive)	> 10 µM (inactive)	> 10 µM (inactive)	> 10 µM (inactive)
COc1cccc(C2ON=C(c3ccccc3)N2C23CC4CC(CC(C4)C2)C3)c1 (centres undefined)	> 10 µM (inactive)	> 10 µM (inactive)	> 10 µM (inactive)	> 10 µM (inactive)	> 10 µM (inactive)	> 10 µM (inactive)	5.09 µM (inactive)	> 10 µM (inactive)	> 10 µM (inactive)	8.91 µM (inactive)	> 10 µM (inactive)	> 10 µM (inactive)	> 10 µM (inactive)	> 10 µM (inactive)	> 10 µM (inactive)	> 10 µM (inactive)	> 10 µM (inactive)	> 10 µM (inactive)	> 10 µM (inactive)
COC(=O)C1OC(SCCN)C(O)C(O)C1O (centres undefined)	> 100 µM (inactive)	> 100 µM (inactive)	> 100 µM (inactive)	> 100 µM (inactive)	> 100 µM (inactive)	> 100 µM (inactive)	> 100 µM (inactive)	> 100 µM (inactive)	> 100 µM (inactive)	> 100 µM (inactive)	> 100 µM (inactive)	> 100 µM (inactive)	> 100 µM (inactive)	> 100 µM (inactive)	> 100 µM (inactive)	> 100 µM (inactive)	> 100 µM (inactive)	> 100 µM (inactive)	> 100 µM (inactive)
COc1ccc2c(c1)C(=O)C(=O)c1cc(O)c(OC)c(OC)c1-2	1.32 µM (inactive)	0.957 µM (active)	0.879 µM (active)	0.805 µM (active)	0.979 µM (active)	0.832 µM (active)	0.104 µM (active)	0.889 µM (active)	0.697 µM (active)	1.18 µM (inactive)	0.933 µM (active)	0.883 µM (active)	0.115 µM (active)	1.85 µM (inactive)	1 µM (active)	0.91 µM (active)	0.718 µM (active)	1.01 µM (active)	0.875 µM (active)
